Measured values reported in patent US8105845B2, “System and method for carrying out multiple binding reactions in an array format” (Bio-Rad Haifa Ltd., priority 2003, dated 2012).

Columns and labels:
[1] = target: Cytochrome-P450 (CYP) 2C9 (Homo sapiens, UniProt P11712); test: SPR array binding of compound targets to immobilized CYP450 enzyme probes
[2] = target: Cytochrome-P450 (CYP) 2C19 (Homo sapiens, UniProt P33261); test: biochemical
[3] = target: Cytochrome-P450 (CYP) 2D6 (Homo sapiens, UniProt P10635); test: biochemical
[4] = target: T1, Cytochrome-P450 (CYP) 1A2 (Homo sapiens, UniProt P05177); test: biochemical
T1 sequence (P05177 1-516): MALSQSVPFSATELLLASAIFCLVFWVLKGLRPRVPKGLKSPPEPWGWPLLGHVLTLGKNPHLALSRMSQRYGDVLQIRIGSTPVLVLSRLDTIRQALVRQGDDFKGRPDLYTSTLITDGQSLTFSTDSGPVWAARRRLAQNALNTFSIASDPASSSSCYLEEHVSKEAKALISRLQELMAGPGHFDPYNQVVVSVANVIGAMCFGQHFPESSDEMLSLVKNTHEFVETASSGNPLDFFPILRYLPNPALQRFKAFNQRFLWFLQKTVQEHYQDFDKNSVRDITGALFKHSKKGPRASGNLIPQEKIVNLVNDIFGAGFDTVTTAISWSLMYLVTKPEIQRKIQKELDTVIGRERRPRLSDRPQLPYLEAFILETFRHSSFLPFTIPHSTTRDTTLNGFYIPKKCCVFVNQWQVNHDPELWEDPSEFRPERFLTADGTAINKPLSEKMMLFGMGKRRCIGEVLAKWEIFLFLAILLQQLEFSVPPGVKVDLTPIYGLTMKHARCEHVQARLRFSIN

Cytochrome-P450 (CYP) 2C19, sequence (P33261 whole entry): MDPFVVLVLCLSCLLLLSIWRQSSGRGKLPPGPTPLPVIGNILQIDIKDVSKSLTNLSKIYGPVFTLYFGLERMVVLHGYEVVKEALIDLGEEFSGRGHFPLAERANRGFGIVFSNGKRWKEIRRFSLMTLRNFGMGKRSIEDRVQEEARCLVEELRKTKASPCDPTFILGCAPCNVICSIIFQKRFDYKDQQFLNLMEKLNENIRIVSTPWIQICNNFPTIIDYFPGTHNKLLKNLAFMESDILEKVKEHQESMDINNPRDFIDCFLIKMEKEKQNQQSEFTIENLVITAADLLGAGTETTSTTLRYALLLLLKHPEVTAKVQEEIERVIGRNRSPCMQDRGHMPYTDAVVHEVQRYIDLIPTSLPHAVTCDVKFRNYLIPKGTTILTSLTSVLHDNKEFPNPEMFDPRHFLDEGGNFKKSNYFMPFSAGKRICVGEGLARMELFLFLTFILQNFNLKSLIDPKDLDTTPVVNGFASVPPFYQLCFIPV
Cytochrome-P450 (CYP) 2D6, sequence (P10635 whole entry): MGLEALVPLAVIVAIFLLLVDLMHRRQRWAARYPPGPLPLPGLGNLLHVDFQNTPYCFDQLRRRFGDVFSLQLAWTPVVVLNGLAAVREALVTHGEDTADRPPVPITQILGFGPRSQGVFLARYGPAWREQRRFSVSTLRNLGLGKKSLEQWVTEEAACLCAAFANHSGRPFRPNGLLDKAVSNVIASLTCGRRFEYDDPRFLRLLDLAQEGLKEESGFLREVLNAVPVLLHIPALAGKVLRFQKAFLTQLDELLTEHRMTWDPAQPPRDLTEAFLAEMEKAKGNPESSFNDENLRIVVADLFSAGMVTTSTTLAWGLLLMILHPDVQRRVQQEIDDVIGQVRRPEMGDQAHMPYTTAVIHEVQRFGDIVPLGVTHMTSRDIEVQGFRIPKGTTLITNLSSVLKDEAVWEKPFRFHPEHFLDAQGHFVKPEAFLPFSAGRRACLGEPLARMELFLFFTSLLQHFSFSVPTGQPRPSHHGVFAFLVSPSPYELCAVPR
Cytochrome-P450 (CYP) 2C9, sequence (P11712 whole entry): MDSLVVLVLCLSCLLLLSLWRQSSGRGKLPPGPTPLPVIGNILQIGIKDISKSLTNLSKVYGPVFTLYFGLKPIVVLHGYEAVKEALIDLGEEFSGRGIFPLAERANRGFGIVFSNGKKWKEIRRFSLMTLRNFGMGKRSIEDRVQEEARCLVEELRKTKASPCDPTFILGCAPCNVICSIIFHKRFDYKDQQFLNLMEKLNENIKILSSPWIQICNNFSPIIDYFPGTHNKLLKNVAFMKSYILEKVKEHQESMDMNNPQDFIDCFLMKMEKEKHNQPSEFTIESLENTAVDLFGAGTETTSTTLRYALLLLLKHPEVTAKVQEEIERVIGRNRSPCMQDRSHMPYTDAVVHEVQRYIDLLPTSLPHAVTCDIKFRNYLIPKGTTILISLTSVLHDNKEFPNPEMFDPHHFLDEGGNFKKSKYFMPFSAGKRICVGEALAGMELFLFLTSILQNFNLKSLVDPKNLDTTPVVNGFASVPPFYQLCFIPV

| Structure (SMILES) | Kd [1] [mM] | Kd [2] [mM] | Kd [3] [mM] | Kd [4] [mM] |
| --- | --- | --- | --- | --- |
| COc1ccc2c(c1)[C@]13CCCC[C@@H]1[C@H](C2)N(C)CC3 [Dexomethorphan] | 28.3 | 7.9 | 60.4 |  |
| O=C(O)Cc1ccccc1Nc1c(Cl)cccc1Cl [Diclofenac] |  | 0.717 | 0.681 | 14.2 |
| CC(C)NCC(O)COc1cccc2ccccc12 (stereo not drawn) [Propranolol] | 5.13 | 6.59 |  | 0.873 |
